One test has as its target VHL-ELOBC (Homo sapiens, UniProt P40337+Q15369+Q15370). The settings on record: competition FP, 15 nM VHL-ELOBC, 5 nM HXC78, 1 h room temperature, n = 2.
In test [1] the target is CHIP-TEAD4 ternary complex (Homo sapiens, UniProt Q15561+Q9UNE7). The settings on record: SPR ABA, Rmax compared with expected response.
Test [2] addresses CHIP-PPIA ternary complex (Homo sapiens, UniProt P62937+Q9UNE7). The following applies: SPR ABA, immobilized PPIA, 10 μM Helicon.

The source of these data is article PMC10620186, “Recognition and reprogramming of E3 ubiquitin ligase surfaces by α-helical peptides” (Nature Communications, 2023).

Structures are written as SMILES.

Take `Cc1ncsc1-c1ccc(CNC(=O)[C@@H]2C[C@@H](O)CN2C(=O)[C@@H](NC(=O)C2(C#N)CC2)C(C)(C)C)cc1` [VH298, (2S,4R)−1-((S)−2-(1-Cyanocyclopropanecarboxamido)−3,3-dimethylbutanoyl)−4-hydroxy-N-(4-(4-methylthiazol-5-yl)benzyl)pyrrolidine-2-carboxamide]: at VHL-ELOBC, the “competition with HXC78 for binding VHL-ELOBC” value is “potently competes”. As for `CC(=O)N1CCC[C@H]1C(=O)N[C@H](C(=O)N1CCC[C@H]1C(=O)N[C@@H](Cc1ccccc1)C(=O)N[C@@H](Cc1ccccc1)C(=O)N[C@@H](Cc1c[nH]c2ccccc12)C(=O)N[C@@H](CCC(=O)O)C(=O)N[C@H]1CSCC(=O)Nc2ccc(cc2)NC(=O)CSC[C@@H](C(=O)N[C@H](C(=O)N[C@@H](C)C(=O)N2CCC[C@H]2C(=O)N[C@@H](CCCNC(=N)N)C(=O)N[C@H](C(=O)N[C@@H](CCC(N)=O)C(N)=O)C(C)C)[C@@H](C)O)NC(=O)[C@H]([C@@H](C)O)NC(=O)[C@H](C)NC(=O)[C@H](C)NC(=O)[C@H](C)NC(=O)[C@H](Cc2ccccc2)NC(=O)[C@H](CCC(N)=O)NC1=O)[C@@H](C)O` [Helicon H323], the “amount of ternary complex formed, CHIP and TEAD4” value in test [1] came to 65%.

On to `CC(=O)N1CCC[C@H]1C(=O)N[C@@H](C)C(=O)N[C@@H](CCC(N)=O)C(=O)N[C@@H](CC(=O)O)C(=O)N[C@@H](CC(=O)O)C(=O)N[C@@H](Cc1c[nH]c2ccccc12)C(=O)N[C@@H](CO)C(=O)N[C@H]1CSCC(=O)Nc2ccc(cc2)NC(=O)CSC[C@@H](C(=O)N[C@@H](CCC(=O)O)C(=O)N[C@@H](CC(N)=O)C(=O)N[C@@H](Cc2ccc(O)cc2)C(=O)N[C@H](C(=O)N[C@@H](CCCNC(=N)N)C(=O)N[C@H](C(N)=O)C(C)C)C(C)C)NC(=O)[C@H](CC(C)C)NC(=O)[C@H](Cc2ccc(O)cc2)NC(=O)[C@H](C)NC(=O)[C@H](C)NC(=O)[C@H](CCC(=O)O)NC(=O)[C@H](C(C)C)NC1=O` [Helicon H326], for which the “ternary complex formation with CHIP and PPIA, of the expected response” value in test [2] worked out at 3%. Same read-out and setting: to `CC[C@H](C)[C@H](NC(=O)[C@@H](NC(=O)CNC(=O)[C@H](CC(=O)O)NC(=O)[C@@H](NC(=O)[C@H](Cc1c[nH]c2ccccc12)NC(=O)[C@@H]1CSCC(=O)Nc2ccc(cc2)NC(=O)CSC[C@H](NC(=O)[C@H](CCSC)NC(=O)[C@@H]2CCCN2C(=O)[C@H](C)NC(=O)[C@H](CC(C)C)NC(=O)[C@H](CCSC)NC(=O)[C@H](CC(=O)O)NC(=O)[C@@H]2CCCN2C(C)=O)C(=O)NCC(=O)N2CCC[C@H]2C(=O)N[C@@H](C)C(=O)N[C@@H](C)C(=O)N[C@@H](CO)C(=O)N[C@@H]([C@@H](C)CC)C(=O)N1)[C@@H](C)CC)C(C)C)C(N)=O` [Helicon H328] belongs 11%.
